Data published in patent US20240228457A1, “AKT3 MODULATORS” (Georgiamune Inc., priority 2020, published 2024).
pEC50, pIC50: −log10 of the molar value.

Key:
Akt3 [1] = target: T1, Akt3 (Homo sapiens, UniProt Q9Y243); assay: Akt3 inhibition activity of selected compounds; format: cell-based
T1 construct: endogenous in cells; host or cells: human CD4+/CD45RA+/CD25- naive T cells under iTreg induction conditions

Akt3 [2] = target: T1, Akt3; assay: Akt3 activation activity of selected compounds; format: cell-based

T1 sequence (Q9Y243 whole entry): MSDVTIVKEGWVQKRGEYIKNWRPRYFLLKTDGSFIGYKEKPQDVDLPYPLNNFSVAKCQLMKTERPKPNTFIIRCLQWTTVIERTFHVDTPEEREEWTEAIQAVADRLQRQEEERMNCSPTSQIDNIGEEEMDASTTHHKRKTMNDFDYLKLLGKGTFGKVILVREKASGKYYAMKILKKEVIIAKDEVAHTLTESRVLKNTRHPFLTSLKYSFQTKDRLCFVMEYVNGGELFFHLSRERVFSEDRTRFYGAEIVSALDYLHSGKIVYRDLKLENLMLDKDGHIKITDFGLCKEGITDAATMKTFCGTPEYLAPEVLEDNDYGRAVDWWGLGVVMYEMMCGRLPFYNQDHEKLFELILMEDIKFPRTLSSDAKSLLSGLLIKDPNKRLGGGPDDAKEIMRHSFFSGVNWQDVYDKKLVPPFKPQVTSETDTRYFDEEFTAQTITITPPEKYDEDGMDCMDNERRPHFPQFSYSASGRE

Row | SMILES | pIC50 (Akt3 [1]) | pEC50 (Akt3 [2])
1 | Cc1cc(Nc2ccc(C(=O)Nc3cccc(Nc4ccncc4)c3)cc2)cc(N)n1 [Compound 20, 4-(2-amino-6-methylpyridin-4-ylamino)-N-(3-(pyridin-4-ylamino)phenyl)benzamide] | > 5.30 | 
2 | N#Cc1ccc2nccc(Nc3cccc(C(=O)Nc4ccc(Nc5ccncc5)cc4)c3)c2c1 [Compound 2, 3-((6-cyanoquinolin-4-yl)amino)-N-(4-(pyridin-4-ylamino)phenyl)benzamide] |  | > 5.30
3 | Nc1cc(Nc2ccc(C(=O)Nc3cccc(Nc4ccncc4)c3)cc2)ccn1 [Compound 19, 4-(2-aminopyridin-4-ylamino)-N-(3-(pyridin-4-ylamino)phenyl)benzamide] | > 5.30 | 

More lines, now with the values ahead:

Row | pIC50 (Akt3 [1]) | pEC50 (Akt3 [2]) | SMILES
4 | > 5.70 |  | Cc1c(Nc2ccc(C(=O)Nc3cccc(Nc4ccncc4)c3)cc2)ccnc1N [Compound 21, 4-(2-amino-3-methylpyridin-4-ylamino)-N-(3-(pyridin-4-ylamino)phenyl)benzamide]
5 | > 5.70 |  | O=C(Nc1ccc(Nc2ccncc2)cc1)c1cccc(Nc2ccnc3ccc(F)cc23)c1 [Compound 3, 3-((6-fluoroquinolin-4-yl)amino)-N-(4-(pyridin-4-ylamino)phenyl)benzamide]
6 | > 5.70 |  | Cc1cccc2nccc(Nc3cccc(C(=O)Nc4ccc(Nc5ccncc5)cc4)c3)c12 [Compound 18, 3-((5-methylquinolin-4-yl)amino)-N-(4-(pyridin-4-ylamino)phenyl)benzamide]
